From paper PMC5606850, “Acidic C-terminal domains autoregulate the RNA chaperone Hfq” (eLife, 2017)
Entries after “also recorded” stand apart in the source; their conditions may differ.

Tested on: linear pUC19 DNA
Assay: Hfq binding to linear pUC19 DNA, agarose gel mobility shift
Details: 0–3.3 μM Hfq hexamer, 6 nM linear pUC19, 25 °C, 1.5% agarose
Method: Figure 5. CTD and RNAs inhibit DNA binding to Hfq by obstructing the basic rim patch. (A, B) Agarose gel electrophoretic mobility shift assays of 0–3.3 μM hexamer Hfq102, Hfq102-R16A, Hfq65 or Hfq65-R16A binding to 6 nM linear pUC19 DNA (2635 nts) at 25°C, stained with SYBR Gold. Hfq65 forms large aggregates that fail to enter the gel (Figure 5—figure supplement 1). (C, D) Line densitometry of DNA migration in (A, B). Free pUC19 (no Hfq) is shown in light grey. Samples with increasing Hfq concentration are shown in darker shades of grey. (E, F) RNA competition. Complexes of 0.5 μM Hfq102 hexamer and 6 nM linear pUC19 (black) were challenged by 0–2 μM RNA or DNA competitor (darker shades of red). pUC19 control in the absence of Hfq is shown in light grey. Icons indicate the binding surface for each competitor. See Figure 5—figure supplement 2 for gel images. Figure 5—figure supplement 1. Hfq CTD prevents aggregation with DNA. (A) Protease assay. 3.5 µM Hfq hexamer incubated with 6 nM linear (L) plus relaxed circular (N) pUC19 DNA at 25°C, for 30 min, in 50 mM Tris-HCl pH 7.5 and 10 mM CaCl2. The samples were divided in two. One set was diluted with a small amount of buffer and incubated at 25°C for an additional 2 hr. The second set was brought to 0.5% SDS, and 0.4 U Proteinase K (NEB) was added, followed by incubation at 50°C for an additional 2 hr. Loading dye was added to all samples just before they were loaded onto a native gel. […] Digestion of Hfq65 and Hfq65-R16A with Proteinase K liberates DNA from Hfq•DNA aggregates, allowing it to be detected (lanes 9 and 10). (B) Pelleting assay. 3.5 µM Hfq hexamer was incubated with 15 nM 1000 bp DNA (Thermo Scientific) at 25°C for 30 min in 50 mM Tris-HCl pH 7.5. Hfq·DNA aggregates were pelleted by centrifugation at 20,000 × g, 4°C, for 30 min. Supernatants were removed and split in two. The pellet and half the supernatant were brought to 1 M NaCl, and the Hfq·DNA aggregates were further disrupted by phenol-chloroform extraction, before all of the samples were loaded on an agarose gel. […] The small proportion of Hfq65·DNA complexes remaining in the supernatant were only detected in the gel after treatment with salt. […] Competition of Hfq-DNA interactions by small RNAs. EMSAs of 0.5 μM Hfq102 hexamer binding to 6 nM linearized pUC19 plasmid, that were competed with 0.1–2 μM RNAs or DNA at 30°C. Gels were run in a cold room. […]
Samples (10 µL) containing linear pUC19 (0.145 nmol bp), 0–3.333 µM Hfq hexamer, in 40 mM Tris-HCl pH 7.5, 0.14 mM EDTA, 35 mM NH4Cl, 3.7% (v/v) glycerol, 0.05% (w/v) bromophenol blue were incubated at 25°C for 30 min. […] The fluorescence intensity was measured on a line from the bottom edge of the well through the middle of the lane to visualize the migration of pUC19. […]

Substance | binding to linear pUC19 DNA (gel mobility) | binding to linear pUC19 DNA (gel mobility) (listed as R16A)
Hfq65-R16A | rescued the formation of insoluble aggregates; also recorded: complexes migrated more slowly than those formed by similar concentrations of Hfq102 | lowered the maximum gel retardation and increased the intensity of the ‘smear’
Hfq65: truncated E. coli Hfq variant lacking the CTD | At higher protein concentrations, the DNA formed aggregates that were too large to enter the gel | –
Hfq102: full-length E. coli Hfq | The mobility of the DNA-Hfq complexes decreased with added Hfq102 | –
